# Results taken from patent US10982219B2, “Guayule with increased rubber production and yield” (The United States of America, as represented by the …, priority 2017, dated 2021).
# What was measured:
# Format in all cases: in vivo, Parthenium argentatum
# guayule G7-11 plants [1] = experiment: Exogenous SA applied to soil of greenhouse guayule, growth and rubber content; details: 50 ml of 10 nM SA to soil twice weekly for two months
# Method: (§1) The effect of SA on guayule PaAos gene expression is tested in wild-type guayule G7-11 plants. SA is added to the growth medium (K0) in tissue culture at different concentrations, 0 nM, 10 nM and 100 nM. Shoot tips are transferred to the growth media, and plants are grown for 8 weeks. The rubber content of the plant tissues is determined by standard procedures (ASE, see Example 3 supra). […] The effect of exogenous 10 nM SA on one month old guayule plants grown in the soil under greenhouse conditions is also examined.
# guayule G7-11 plants [2] = experiment: Exogenous SA in tissue culture growth medium, rubber content by ASE; details: 8 weeks, versus 0 nM
# Method: as §1
# PaAos = experiment: qRT-PCR of PaAOS in SA treated soil-grown guayule; details: 10 nM SA to soil twice weekly for two months
# Method: as §1
compound,measurement,setting,value
"O=C(O)c1ccccc1O [SA, salicylic acid]",height and primary stem diameter,guayule G7-11 plants [1]; versus mock or water treated,significant differences in the height and primary stem diameter
same,rubber content,guayule G7-11 plants [1]; versus mock treated,slightly increases and significantly differs
same,amount of rubber produced,guayule G7-11 plants [2]; 10 nM SA in growth medium,increases the amount of rubber produced in a significant manner
same,amount of rubber produced,guayule G7-11 plants [2]; 100 nM SA in growth medium,increases the amount of rubber produced in a significant manner
same,PaAOS expression (qRT-PCR),PaAos,low expression pattern
